Tests used:
[1] = molecular target: acetylcholinesterase (Homo sapiens, UniProt P22303); experiment: Cholinesterase inhibition assay (photometric method of Ellman et al.); assay type: biochemical; conditions: read-out: Cholinesterase Inhibition IC50 (molar conc.)
[2] = system: scopolamine induced memory deficit in mice; experiment: Dark Avoidance Assay (reversal of scopolamine induced memory deficit); assay type: in vivo; conditions: retest after 24 hours
Method: This utility can also be ascertained by determining the ability of these compounds to restore cholinergically deficient memory in the Dark Avoidance Assay. In this assay mice are tested for their ability to remember an unpleasant stimulus for a period of 24 hours. A mouse is placed in a chamber that contains a dark compartment; a strong incadescent light drives it to the dark compartment, where an electric shock is administered through metal plates on the floor. The animal is removed from the testing apparatus and tested again, 24 hours later, for the ability to remember the electric shock.
If scopolamine, an anticholinergic that is known to cause memory impairment, is administered before an animal's initial exposure to the test chamber, the animal re-enters the dark compartment shortly after being placed in the test chamber 24 hours later. This effect of scopolamine is blocked by an active test compound, resulting in a greater interval before re-entry into the dark compartment.
The results for an active compound are expressed as the percent of a group of animals in which the effect of scopolamine is blocked, as manifested by an increased interval between being placed in the test chamber and re-entering the dark compartment.

[3] = system: 2-phenyl-1,4-benzoquinone-induced writhing in mice; experiment: 2-phenyl-1,4-benzoquinone-induced writhing test in mice (analgesia); assay type: in vivo
Text: The compounds of Formula I of the present invention are useful as analgesic agents due to their ability to alleviate pain in mammals. […] Exptl. Biol. Med., 95, 729 (1957)].

acetylcholinesterase, sequence (P22303 32-614): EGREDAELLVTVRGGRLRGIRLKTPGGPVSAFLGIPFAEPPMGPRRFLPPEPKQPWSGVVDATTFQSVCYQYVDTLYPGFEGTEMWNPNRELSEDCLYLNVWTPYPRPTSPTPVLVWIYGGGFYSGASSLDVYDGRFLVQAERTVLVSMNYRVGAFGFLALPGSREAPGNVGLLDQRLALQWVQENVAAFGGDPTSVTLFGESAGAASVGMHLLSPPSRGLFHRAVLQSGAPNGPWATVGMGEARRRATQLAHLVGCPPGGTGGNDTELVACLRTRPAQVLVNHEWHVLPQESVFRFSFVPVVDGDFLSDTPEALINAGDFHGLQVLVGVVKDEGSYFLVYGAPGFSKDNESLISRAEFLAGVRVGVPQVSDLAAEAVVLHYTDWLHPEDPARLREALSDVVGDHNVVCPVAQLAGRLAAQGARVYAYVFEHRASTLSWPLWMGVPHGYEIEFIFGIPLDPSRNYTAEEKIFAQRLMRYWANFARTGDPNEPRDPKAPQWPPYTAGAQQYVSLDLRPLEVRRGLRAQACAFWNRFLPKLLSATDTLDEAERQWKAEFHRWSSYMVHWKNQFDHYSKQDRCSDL

Structure (SMILES): c1ccc2c(c1)NC1CCCc3onc-2c31 (stereo not shown) [4,5,5a,6-Tetrahydro-3H-isoxazolo[5,4,3-kl]acridine]
- IC50 [1]: 13 µM

Structure (SMILES): c1ccc2c(c1)nc1c3c(onc32)CCC1 [4,5-Dihydro-3H-isoxazolo[5,4,3-kl]acridine]
- % of animals with scopolamine induced memory deficit reversal ([2]; 0.63 mg/kg body weight): 20%
- IC50 [1]: 3.9 µM

Structure (SMILES): C=CCN1c2ccccc2-c2noc3c2C1CCC3 (stereo not shown) [6-(2-Propenyl)-4,5,5a,6-tetrahydro-3H-isoxazolo[5,4,3-kl]acridine]
- % of animals with scopolamine induced memory deficit reversal ([2]; 1.25 mg/kg body weight): 27%

Structure (SMILES): CCNC(=O)N1c2ccccc2-c2noc3c2C1CCC3 (stereo not shown) [6-Ethylaminocarbonyl-4,5,5a,6-tetrahydro-3H-isoxazolo[5,4,3-kl]acridine]
- Analgesic PQW % Inhibition of Writhing at 20 mg/kg., S.C. [3]: 44%

Structure (SMILES): C#CCNC(=O)N1c2ccccc2-c2noc3c2C1CCC3 (stereo not shown) [N-(2-Propynyl)-4,5,5a,6-tetrahydro-3H-isoxazolo-[5,4,3-kl]acridine-6-carboxamide]
- Analgesic PQW % Inhibition of Writhing at 20 mg/kg., S.C. [3]: 29%

Structure (SMILES): O=C(NCCN1CCOCC1)N1c2ccccc2-c2noc3c2C1CCC3 (stereo not shown) [N-[2-(4-Morpholinyl)ethyl]-4,5,5a,6-tetrahydro-3H-isoxazolo[5,4,3-kl]acridine-6-carboxamide]
- Analgesic PQW % Inhibition of Writhing at 20 mg/kg., S.C. [3]: 52%

Structure (SMILES): O=C(NCC#CCN1CCCC1)N1c2ccccc2-c2noc3c2C1CCC3 (stereo not shown) [N-[4-(1-Pyrrolidinyl)-2-butyn-1-yl]-4,5,5a,6-tetrahydro-3H-isoxazolo[5,4,3-kl]acridine-6-carboxamide]
- Analgesic PQW % Inhibition of Writhing at 20 mg/kg., S.C. [3]: 33%

Structure (SMILES): CNC(=O)Oc1ccc2c(c1)[C@]1(C)CCN(C)[C@@H]1N2C [Physostigmine, reference compound]
- % of animals with scopolamine induced memory deficit reversal ([2]; 0.31 mg/kg body weight, reference): 20%

Structure (SMILES): CCC(=O)O[C@](Cc1ccccc1)(c1ccccc1)[C@H](C)CN(C)C [Propoxyphene, reference compound]
- Analgesic PQW % Inhibition of Writhing ([3]; 3.9 mg/kg, s.c., reference compound): 50%
